The record followed here is PubChem BioAssay (NCI).

Common to all, as to assay: NCI tumour cell line growth inhibition, 48 h
The subject of test [1] is RPMI-8226 leukemia.
The test system of test [2] is SN12C renal.
Test [3] concerns K-562 leukemia.
Test [4] deals with HOP-92 NSCLC.
In test [5] the test system is HOP-62 NSCLC.

Values joined by “and” are separate entries in the source; they are usually repeats but may differ in a detail not shown here. Equal entries are not always repeated.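 Exposure lasted 48 hours, with cells grown in 96-well plates and compounds tested at five concentrations. The concentration for 50% growth inhibition is given as GI50. TGI: total growth inhibition.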

`CCN(CC)C(=S)SS(=O)(=O)c1ccc(NC(C)=O)cc1`: the TGI in test [1] is 44 µM; in test [2], 39.1 µM; in test [3] it was greater than 100 µM; in test [4], 51.3 µM; in test [5] it was 42 µM.
Regarding `COC(=O)[C@@H]1OC(C)(c2ccccc2)O[C@H]1C(=O)OC`, the TGI in test [1], in test [3], in test [4] and in test [5] was greater than 100 µM throughout.
For `O=C(c1cccs1)N(Cc1cccnc1)C(=S)N(Cc1cccnc1)C(=O)c1cccs1`, the TGI in test [2], in test [3], in test [4] and in test [5] was greater than 100 µM in each case.
With `Cc1ccc(/C=N/NS(=O)(=O)c2ccc(/C=C3\NC(=O)NC3=O)cc2)cc1`, the TGI in test [1] was greater than 100 µM; in test [2], greater than 100 µM; in test [3] it was greater than 100 µM; in test [4] it was greater than 100 µM; in test [5] it was 91.1 µM.
For the molecule `COc1ccc(N=CN(C)C)c(C)c1`, the TGI is greater than 100 µM in test [1]; 64 µM in test [2]; greater than 100 µM in test [3]; 36.3 µM in test [4]; 45.4 µM in test [5].
As for `CN(C)c1nc(=NCc2cccnc2)ss1`, the TGI in test [1], in test [2], in test [3], in test [4] and in test [5] was greater than 10 µM each time.
`O=C(CC(=O)N1N=C(N(c2ccccc2)c2ccccc2)CC1c1ccccc1)Nc1ccccc1` (stereo not drawn): the TGI in test [1], in test [3], in test [4] and in test [5] was greater than 100 µM throughout.
For the molecule `CCOC(=O)c1ccc(N=c2oc3ccc(OC)cc3cc2-c2nc3ccccc3[nH]2)cc1`, the TGI in test [1], in test [2], in test [3], in test [4] and in test [5] was greater than 100 µM throughout.
As to `Cn1c(=O)n2n(c1=O)[C@@H](c1ccccc1)[C@H]2c1ccccc1`, the TGI in test [2], in test [3], in test [4] and in test [5] was greater than 100 µM throughout.
Turning to `CN(C)CCCN1c2ccccc2CCc2cc([N+](=O)[O-])ccc21`, the TGI was 52.6 µM and 41.2 µM in test [1]; 60.9 µM and 30.4 µM in test [2]; > 100 µM and 38.6 µM in test [3]; 58.1 µM and 22.6 µM in test [4]; 48.6 µM and 30 µM in test [5]. Further, the GI50 in test [4] was 21.8 µM and 7.69 µM.
For `COc1ccc(C(SCC(N)C(=O)O)(c2ccc(OC)cc2)c2ccc(OC)cc2)cc1` (stereo not drawn), the TGI in test [1] was greater than 31.6 µM; in test [2], 17.7 µM; in test [3] it was greater than 31.6 µM; in test [4], 31.6 µM; in test [5] it was 17.8 µM.
On to `CN(C)Cc1cc(/C=C/C(=O)c2ccc(Cl)c(Cl)c2)cc(CN(C)C)c1O`, for which the TGI in test [1] is 36.8 µM; in test [2], 30.2 µM; in test [3] it was 91.2 µM; in test [5], 38 µM.
On to `O=c1c2cc(S(=O)(=O)Nc3c(Cl)cccc3Cl)ccc2ncn1NS(=O)(=O)c1ccc2ccccc2c1`, for which the TGI in test [1], in test [2], in test [3], in test [4] and in test [5] was greater than 62.5 µM each time.
As to `O=C1C=C2CC[C@H]3[C@@H]4CC[C@H](OC(=O)c5cccc6cc7ccccc7nc56)[C@H]4CC[C@@H]3[C@H]2CC1`, the TGI in test [1], in test [2], in test [3] and in test [5] was greater than 100 µM each time.
With `CCO/C=C(\C(=O)OC)S(=O)(=O)c1ccc(C)cc1`, the TGI in test [1], in test [2], in test [3], in test [4] and in test [5] was greater than 100 µM in each case.
For `COc1cccc(C2c3cc4c(cc3OC(N3CCCCC3)C2C)OCO4)c1OC` (stereo not drawn), the TGI is 21.6 µM in test [1]; 96.8 µM in test [2]; 20.7 µM in test [3]; 37.9 µM in test [4]; 50.1 µM in test [5].
In the case of `CCOC(=O)c1cc(Br)c(-c2onc(C)c2Br)n1C`, the TGI in test [1] is greater than 100 µM; in test [2], 56.8 µM; in test [3] it was greater than 100 µM; in test [5], greater than 100 µM.
On to `O=[N+]([O-])c1ccc(C(=Nc2ccccc2)SSC(=Nc2ccccc2)c2ccc([N+](=O)[O-])o2)o1`, for which the values for the TGI in test [2], in test [4] and in test [5] were 4.48 µM, 6.22 µM and 6.23 µM, respectively.
Turning to `C=C(CN)CO[Si](C)(C)C(C)(C)C`, the TGI in test [1], in test [2], in test [3] and in test [5] was greater than 100 µM throughout.
With `CCOP(=O)(OCC)C(Nc1ccc(C(=O)O)cc1)c1ccc(C(Nc2ccc(C(=O)O)cc2)P(=O)(OCC)OCC)cc1` (stereo not drawn), the TGI in test [1], in test [3], in test [4] and in test [5] was greater than 100 µM throughout.
`CCc1ccccc1NC(=O)C(=O)CC(=O)c1sc(Nc2ccccc2Cl)nc1C`: the TGI in test [1] was 65.6 µM; in test [2], greater than 100 µM; in test [3], greater than 100 µM; in test [5], greater than 100 µM.
With `CCn1c2ccccc2c2cc(NC(=O)c3c(NCCNCCO)nc(=O)[nH]c3C)ccc21`, the TGI in test [2], in test [3], in test [4] and in test [5] was greater than 100 µM each time.
Take `N#CC(c1ccccc1)N(CCOCCOCCN(C(=O)c1cccc2ccccc12)C(C#N)c1ccccc1)C(=O)c1cccc2ccccc12` (stereo not drawn): the TGI in test [2] and in test [3] was greater than 100 µM in each case.
As to `CC1(O)Oc2ccc3ccccc3c2C=C1C(N)=O` (stereo not drawn), the TGI in test [1], in test [3], in test [4] and in test [5] was greater than 100 µM in each case.
Turning to `O=C(/C=C/c1ccc2c(c1)OCO2)CC(=O)/C=C/c1ccc2c(c1)OCO2`, the TGI in test [1], in test [2], in test [3] and in test [5] was greater than 100 µM in each case.
